Laboratory results: patent US8697356B2, “Single-molecule-format probe and utilization thereof” (National Institute of Advanced Industrial Science and …, priority 2008, dated 2014)

Legend:
Format in all cases: cell-based, African green monkey
cytosolic Ca^2+ [1] = experiment: Retention of Ca^2+ levels after wash-out, COS-7 cells carrying pCPG (Example 9); settings: CPG; 20 minutes stimulation; thapsigargin or cyproheptadine added to 0.5 mM histamine or ATP; 2 μM ionomycin
Protocol: Retention of cytosolic calcium Ca^2+ levels in response to an external stimulus were monitored on the basis of the luminescence intensities from COS-7 cells carrying pCPG.
The cells were washed twice with PBS after ligand stimulation, and harvested by trypsinization and centrifugation. This wash-out terminates the external stimulation of ligands for elevating cytosolic Ca^2+ levels. The cells were resuspended with a 40 mL substrate buffer carrying coelenterazine, and then transferred to a test tube to determine the luminescence with a luminometer (Minilumat LB9506).

COS-7 cells = experiment: Saturation rate of substrate in COS-7 cells carrying pCPG-ctrl (Example 13); settings: HBSS buffer
Protocol: A reaction rate of coelenterazine saturation in COS-7 cells was monitored. […] The cells on the plate were washed once with HBSS buffer and were saturated with 500 μL HBSS buffer. The luminescence variances after coelenterazine addition were monitored with a bioluminescence plate reader (Mithras LB 940; Berthold).

cytoplasm Ca^2+ = experiment: Ligand affinity of CPG and CPG-ctrl, histamine-triggered Ca^2+ (Example 12)
Source text: First, GLuc was dissected at Q105, and the original N- and C-terminals of the fragments were circularly permutated with a 10 GS linker. The outer terminals were respectively fused with M13 and CaM to form CPG. CPG-ctrl which is different from CPG only in that GLuc was not circularly permutated was parallelly formed as a control probe of CPG by the use of the same components as CPG (FIG. 20).
As in Example 2, COS-7 cells cultured in a black, glass-bottom plate (24-well) were transiently transfected with pCPG or pCPG-ctrl, and stocked in a cell incubator for 16 hours. The cells were saturated with a 300 μL HBSS buffer containing coelenterazine.

cytosolic Ca^2+ [2] = experiment: Ca^2+ dynamics in COS-7 cells transfected with pCPG or pSMG (Example 8); settings: 1 mM histamine, CPG
Source text: The dynamics of cytosolic Ca^2+ in COS-7 cells were monitored in the cells transfected with pCPG and in the cells transfected with SMG shown in FIG. 14 as a control. The free Ca^2+ was a representative second messenger in living mammalian cells. […] The outer terminals were respectively fused with M13 peptide and calmodulin. SMG is different from CPG in that calmodulin and M13 peptide are linked between N- and C-terminal fragments. That is, the luciferases are not circularly permutated in SMG.
As in Example 2, COS-7 cells cultured in a black, glass-bottom plate (24-well) were transfected with pCPG or pSMG, and stocked in a cell incubator for 16 hours. The cells were saturated with a 300 μL Hank's balanced salt solution (HBSS) buffer containing coelenterazine.

In the case of `Nc1ncnc2c1ncn2[C@@H]1O[C@H](COP(=O)(O)OP(=O)(O)OP(=O)(O)O)[C@@H](O)[C@H]1O` [ATP], the “cytosolic Ca^2+ levels (luminescence) after wash-out” value (from here on “cytosolic Ca^2+ levels”) (cytosolic Ca^2+ [1]) is reported as “quickly decreased”.
With `C[C@H](CCC(=O)O)C[C@H](C)C[C@H](C)C(=O)/C=C(\O)[C@H](C)C[C@H](C)C/C=C/[C@@H](C)[C@@H](O)[C@@H](C)[C@@H](O)C[C@@H]1CC[C@@](C)([C@H]2CC[C@@](C)([C@@H](C)O)O2)O1` [Ionomycin, ionomycin] the “cytosolic Ca^2+ levels” value (cytosolic Ca^2+ [1]) was “retaining certain levels”.
In the case of `Oc1ccc(Cc2nc3c(Cc4ccccc4)nc(-c4ccc(O)cc4)cn3c2O)cc1` [coelenterazine], the “time in which the COS-7 cells were saturated” value (COS-7 cells) is reported as 8.5 min.
In the case of `NCCc1c[nH]cn1` [histamine], the “concentration from which CPG started sensing” value (cytoplasm Ca^2+) is reported as 0.25 mM, the “time to reach plateau of luminescence” value (cytoplasm Ca^2+; 1 mM histamine, CPG) is reported as about 10 min and the “time to reach plateau of luminescence” value (cytosolic Ca^2+ [2]) is reported as about 10 min.
For `C/C=C(/C)C(=O)O[C@H]1C(C)=C2[C@H]([C@@H]1OC(=O)CCCCCCC)[C@@](C)(OC(C)=O)C[C@H](OC(=O)CCC)[C@@]1(O)[C@H]2OC(=O)[C@@]1(C)O` [thapsigargin], the “cytosolic Ca^2+ levels” value (cytosolic Ca^2+ [1]) was “retained”.
